From patent US10258039B2, “Substituted pyrazolylpyrazole derivative and use of same as herbicide” (KYOYU AGRI CO., LTD., priority 2015, dated 2019)

How the values were obtained:
Format in all cases: in vivo
Chenopodium album [1] = assay: Farming soil treatment test; conditions: soil surface spray prior to weed growth, 30 days, 30° C.
Description: (§1) 2. Farming Soil Treatment Test
(§2) Field soil was filled into a 1/6000 are pot followed by seeding with Digitaria ciliaris, Chenopodium album and Amaranthus retroflexus and covering with soil.
(§3) Wettable powders of compounds of formula (I) shown in Table 1 prepared in compliance with the preparation examples were diluted with water to the prescribed amount of chemical and uniformly sprayed onto each soil surface layer using 100 liters of sprayed water per 10 are prior to weed growth following seeding.
(§4) After treating for 30 days in a glass greenhouse at an average atmospheric temperature of 30° C., the herbicidal efficacy thereof was investigated.
(§5) Evaluation of herbicidal efficacy was carried out in the same manner as the above-mentioned Test Example 1.

Digitaria ciliaris [2] = assay: Farming soil treatment test; conditions: soil surface spray prior to weed growth, 30 days, 30° C.
Description: as §1, §2, §3, §4, §5

Amaranthus retroflexus [3] = assay: Farming soil treatment test; conditions: soil surface spray prior to weed growth, 30 days, 30° C.
Description: as §1, §2, §3, §4, §5

Oryza sativa = assay: Paddy herbicidal activity test, phytotoxicity to transplanted rice; conditions: rice transplanted at 2.0 leaf stage, 30 days, 30° C.
Description: (§6) 1. Paddy Herbicidal Activity Test
(§7) Rice paddy soil was filled into a 1/10000 are pot followed by the addition of suitable amounts of water and chemical fertilizer, kneading, seeding with Echinochloa crus-galli, Monochoria vaginalis and Scirpus juncoides and maintaining in an irrigated state at a water depth of 3 cm.
(§8) Wettable powders of Target Compound (I) shown in. Table 1 prepared in compliance with the preparation examples were diluted with a suitable amount of water, rice plants in the 2.0 leaf stage were transplanted during 3.5 leaf stage of Echinochloa crus-galli, and treated by dropping in chemical in the prescribed amount per 10 are using a pipette.
as §4
(§9) Evaluation of herbicidal efficacy was carried out by comparing growth inhibition rate (%) with an untreated group, while evaluation of phytotoxicity was carried out by comparing growth inhibition rate (%) with the state of a complete eradication group, and were evaluated at 11 levels indicated below.

Monochoria vaginalis = assay: Paddy herbicidal activity test; conditions: irrigated paddy pot, 30 days, 30° C.
Description: as §6, §7, §8, §4, §9

Scirpus juncoides = assay: Paddy herbicidal activity test; conditions: irrigated paddy pot, 30 days, 30° C.
Description: as §6, §7, §8, §4, §9

Echinochloa crus-galli = assay: Paddy herbicidal activity test; conditions: irrigated paddy pot, treated at 3.5 leaf stage of Echinochloa crus-galli, 30 days, 30° C.
Description: as §6, §7, §8, §4, §9

Chenopodium album [4] = assay: Weed foliar treatment test (Test 3, 1.0 to 2.0 leaf stage); conditions: foliar spray at 1.0 to 2.0 leaf stage of Digitaria ciliaris, 3 weeks, 25° C.
Description: (§10) 3. Weed Foliar Treatment Test
(§11) Soil was filled into a 1/6000 are pot followed by seeding with Digitaria ciliaris, Chenopodium album and Amaranthus retroflexus, covering with soil, and cultivating in a glass greenhouse at an average atmospheric temperature of 25° C.
(§12) Wettable powders of Target Compound (I) shown in Table 1 prepared in compliance with the preparation examples were diluted with water to the prescribed amount of chemical and uniformly sprayed onto the weeds using 150 liters of sprayed water per 10 are when Digitaria ciliaris had grown to the 1.0 to 2.0 leaf stage.
(§13) After treating for 3 weeks in a glass greenhouse at an average atmospheric temperature of 25° C., the herbicidal efficacy thereof was investigated.
as §5

Digitaria ciliaris [5] = assay: as above; conditions: foliar spray at 1.0 to 2.0 leaf stage of Digitaria ciliaris, 3 weeks, 25° C.
Description: as §10, §11, §12, §13, §5

Amaranthus retroflexus [6] = assay: as above; conditions: foliar spray at 1.0 to 2.0 leaf stage of Digitaria ciliaris, 3 weeks, 25° C.
Description: as §10, §11, §12, §13, §5

Galinsoga parviflora = assay: Weed foliar treatment test (Test 4, 4.0 to 5.0 leaf stage); conditions: 10g a.i./10a; foliar spray at 4.0 to 5.0 leaf stage of Digitaria ciliaris; 20 days, 25° C.
Description: (§14) 4. Weed Foliar Treatment Test
(§15) Field soil was filled into a 1/4500 are pot followed by seeding with Digitaria ciliaris and Galinsoga parviflora, covering with soil and cultivating in a glass greenhouse at an average atmospheric temperature of 25° C.
(§16) Wettable powders of Target Compound (I) shown in Table 1 prepared in compliance with the preparation examples were diluted with water to the prescribed amount of chemical and uniformly sprayed onto the weeds using 100 liters of sprayed water per 10 are when Digitaria ciliaris had grown to the 4.0 to 5.0 leaf stage (plant height: 10 cm to 15 cm).
(§17) After treating for 20 days in a glass greenhouse at an average atmospheric temperature of 25° C., the herbicidal efficacy thereof was investigated.
as §5

Digitaria ciliaris [7] = assay: as above; conditions: 10g a.i./10a; foliar spray at 4.0 to 5.0 leaf stage of Digitaria ciliaris (plant height 10 cm to 15 cm); 20 days, 25° C.
Description: as §14, §15, §16, §17, §5

Compound	herbicidal efficacy, Chenopodium album (Chenopodium album [1]; 5g a.i./10a)	herbicidal efficacy, Chenopodium album (Chenopodium album [1]; 10g a.i./10a)	herbicidal efficacy, Digitaria ciliaris (Digitaria ciliaris [2]; 5g a.i./10a)	herbicidal efficacy, Digitaria ciliaris (Digitaria ciliaris [2]; 10g a.i./10a)	herbicidal efficacy, Amaranthus retroflexus (Amaranthus retroflexus [3]; 5g a.i./10a)	herbicidal efficacy, Amaranthus retroflexus (Amaranthus retroflexus [3]; 10g a.i./10a)	herbicidal efficacy, Galinsoga parviflora (Galinsoga parviflora)	herbicidal efficacy, Digitaria ciliaris (Digitaria ciliaris [7])	also measured
CN(C(=O)CC1CC1)c1c(C#N)cnn1-c1nn2c(c1Cl)CCCC2 [Compound 1, Methyl N-(1-(3-chloro-4,5,6,7-tetrahydropyrazolo[1,5-a]pyridin-2-yl)4-cyanopyrazol-5-yl)-2-cyclopropyl Acetoamide]	10 (10: 100%)	10 (10: 100%)	9 (9: 90% to less than 100%)	10 (10: 100%)	10 (10: 100%)	10 (10: 100%)	–	–	–
O=C(Nc1c([N+](=O)[O-])cnn1-c1nn2c(c1Cl)CCCC2)C1CC1 [Compound 2]	9 (9: 90% to less than 100%)	9 (9: 90% to less than 100%)	9 (9: 90% to less than 100%)	9 (9: 90% to less than 100%)	10 (10: 100%)	10 (10: 100%)	10 (10: 100%)	10 (10: 100%)	phytotoxicity, Oryza sativa (Oryza sativa; 1g a.i./10a): 1 (1: 10% to less than 20%); phytotoxicity, Oryza sativa (Oryza sativa; 5g a.i./10a): 1 (1: 10% to less than 20%); herbicidal efficacy, Monochoria vaginalis (Monochoria vaginalis; 1g a.i./10a): 10 (10: 100%); herbicidal efficacy, Monochoria vaginalis (Monochoria vaginalis; 5g a.i./10a): 10 (10: 100%); herbicidal efficacy, Scirpus juncoides (Scirpus juncoides; 1g a.i./10a): 9 (9: 90% to less than 100%); herbicidal efficacy, Scirpus juncoides (Scirpus juncoides; 5g a.i./10a): 9 (9: 90% to less than 100%); herbicidal efficacy, Echinochloa crus-galli (Echinochloa crus-galli; 1g a.i./10a): 10 (10: 100%); herbicidal efficacy, Echinochloa crus-galli (Echinochloa crus-galli; 5g a.i./10a): 10 (10: 100%); herbicidal efficacy, Chenopodium album (Chenopodium album [4]; 5g a.i./10a): 10 (10: 100%); herbicidal efficacy, Chenopodium album (Chenopodium album [4]; 10g a.i./10a): 10 (10: 100%); herbicidal efficacy, Digitaria ciliaris (Digitaria ciliaris [5]; 5g a.i./10a): 10 (10: 100%); herbicidal efficacy, Digitaria ciliaris (Digitaria ciliaris [5]; 10g a.i./10a): 10 (10: 100%); herbicidal efficacy, Amaranthus retroflexus (Amaranthus retroflexus [6]; 5g a.i./10a): 10 (10: 100%); herbicidal efficacy, Amaranthus retroflexus (Amaranthus retroflexus [6]; 10g a.i./10a): 10 (10: 100%)
CC1(C(=O)Nc2c(C#N)cnn2-c2nn3c(c2Cl)CCCC3)CC1 [Compound 3]	–	–	–	–	–	–	10 (10: 100%)	10 (10: 100%)	–
N#Cc1cnn(-c2nn3c(c2Cl)CCCC3)c1NC(=O)C1CCC1 [Compound 4]	–	–	–	–	–	–	10 (10: 100%)	10 (10: 100%)	–
N#Cc1cnn(-c2nn3c(c2Cl)CCCC3)c1NC(=O)C1CCCC1 [Compound 5]	–	–	–	–	–	–	10 (10: 100%)	10 (10: 100%)	–
O=C(Nc1c([N+](=O)[O-])cnn1-c1nn2c(c1Cl)CCCC2)C1CCCC1 [Compound 6]	9 (9: 90% to less than 100%)	9 (9: 90% to less than 100%)	9 (9: 90% to less than 100%)	9 (9: 90% to less than 100%)	10 (10: 100%)	10 (10: 100%)	10 (10: 100%)	9 (9: 90% to less than 100%)	phytotoxicity, Oryza sativa (Oryza sativa; 1g a.i./10a): 0 (0 (exponent): 0% to less than 10% (growth inhibition rate)); phytotoxicity, Oryza sativa (Oryza sativa; 5g a.i./10a): 1 (1: 10% to less than 20%); herbicidal efficacy, Monochoria vaginalis (Monochoria vaginalis; 1g a.i./10a): 10 (10: 100%); herbicidal efficacy, Monochoria vaginalis (Monochoria vaginalis; 5g a.i./10a): 10 (10: 100%); herbicidal efficacy, Scirpus juncoides (Scirpus juncoides; 1g a.i./10a): 9 (9: 90% to less than 100%); herbicidal efficacy, Scirpus juncoides (Scirpus juncoides; 5g a.i./10a): 9 (9: 90% to less than 100%); herbicidal efficacy, Echinochloa crus-galli (Echinochloa crus-galli; 1g a.i./10a): 10 (10: 100%); herbicidal efficacy, Echinochloa crus-galli (Echinochloa crus-galli; 5g a.i./10a): 10 (10: 100%); herbicidal efficacy, Chenopodium album (Chenopodium album [4]; 5g a.i./10a): 10 (10: 100%); herbicidal efficacy, Chenopodium album (Chenopodium album [4]; 10g a.i./10a): 10 (10: 100%); herbicidal efficacy, Digitaria ciliaris (Digitaria ciliaris [5]; 5g a.i./10a): 10 (10: 100%); herbicidal efficacy, Digitaria ciliaris (Digitaria ciliaris [5]; 10g a.i./10a): 10 (10: 100%); herbicidal efficacy, Amaranthus retroflexus (Amaranthus retroflexus [6]; 5g a.i./10a): 10 (10: 100%); herbicidal efficacy, Amaranthus retroflexus (Amaranthus retroflexus [6]; 10g a.i./10a): 10 (10: 100%)
N#Cc1cnn(-c2nn3c(c2Cl)CCCC3)c1NC(=O)C1CCCCC1 [Compound 7]	–	–	–	–	–	–	10 (10: 100%)	10 (10: 100%)	–
O=C(CC1CC1)Nc1c([N+](=O)[O-])cnn1-c1nn2c(c1Cl)CCCC2 [Compound 8]	10 (10: 100%)	10 (10: 100%)	9 (9: 90% to less than 100%)	10 (10: 100%)	10 (10: 100%)	10 (10: 100%)	10 (10: 100%)	9 (9: 90% to less than 100%)	phytotoxicity, Oryza sativa (Oryza sativa; 1g a.i./10a): 0 (0 (exponent): 0% to less than 10% (growth inhibition rate)); phytotoxicity, Oryza sativa (Oryza sativa; 5g a.i./10a): 0 (0 (exponent): 0% to less than 10% (growth inhibition rate)); herbicidal efficacy, Monochoria vaginalis (Monochoria vaginalis; 1g a.i./10a): 10 (10: 100%); herbicidal efficacy, Monochoria vaginalis (Monochoria vaginalis; 5g a.i./10a): 10 (10: 100%); herbicidal efficacy, Scirpus juncoides (Scirpus juncoides; 1g a.i./10a): 9 (9: 90% to less than 100%); herbicidal efficacy, Scirpus juncoides (Scirpus juncoides; 5g a.i./10a): 10 (10: 100%); herbicidal efficacy, Echinochloa crus-galli (Echinochloa crus-galli; 1g a.i./10a): 9 (9: 90% to less than 100%); herbicidal efficacy, Echinochloa crus-galli (Echinochloa crus-galli; 5g a.i./10a): 10 (10: 100%); herbicidal efficacy, Chenopodium album (Chenopodium album [4]; 5g a.i./10a): 10 (10: 100%); herbicidal efficacy, Chenopodium album (Chenopodium album [4]; 10g a.i./10a): 10 (10: 100%); herbicidal efficacy, Digitaria ciliaris (Digitaria ciliaris [5]; 5g a.i./10a): 9 (9: 90% to less than 100%); herbicidal efficacy, Digitaria ciliaris (Digitaria ciliaris [5]; 10g a.i./10a): 10 (10: 100%); herbicidal efficacy, Amaranthus retroflexus (Amaranthus retroflexus [6]; 5g a.i./10a): 10 (10: 100%); herbicidal efficacy, Amaranthus retroflexus (Amaranthus retroflexus [6]; 10g a.i./10a): 10 (10: 100%)
N#Cc1cnn(-c2nn3c(c2Cl)CCCC3)c1NC(=O)CC1CCCC1 [Compound 29]	–	–	–	–	–	–	10 (10: 100%)	10 (10: 100%)	–
N#Cc1cnn(-c2nn3c(c2Cl)CCCC3)c1NC(=O)CCC1CCCC1 [Compound 30]	–	–	–	–	–	–	10 (10: 100%)	10 (10: 100%)	–
N#Cc1cnn(-c2nn3c(c2Cl)CCCC3)c1NC(=O)CCC1CC=CCC1 (centres unmarked) [Compound 31]	–	–	–	–	–	–	10 (10: 100%)	10 (10: 100%)	–
